Measured values published in US20250262201A1, “COMPOUNDS AND METHODS USEFUL FOR STABILIZING PHENYLALANINE HYDROXYLASE MUTATIONS” (Agios Pharmaceuticals, Inc., priority 2022, published 2025).

These molecules were tested against T1, human PAH with the R408W mutation (Homo sapiens, UniProt P00439, R408W) (assay: Cell Based Phenylalanine Flux Assay). Conditions: A375 R408W cells, 24 hrs with compound, then 20 μM sepiapterin and 800 μM 13C9,15N-Phenylalanine for 4 hours; 13C-Tyrosine by LC-MS; average where tested multiple times; read-out: AC50.
T1 construct: expressed in transfected cells
T1 sequence (P00439 1-452 R408W): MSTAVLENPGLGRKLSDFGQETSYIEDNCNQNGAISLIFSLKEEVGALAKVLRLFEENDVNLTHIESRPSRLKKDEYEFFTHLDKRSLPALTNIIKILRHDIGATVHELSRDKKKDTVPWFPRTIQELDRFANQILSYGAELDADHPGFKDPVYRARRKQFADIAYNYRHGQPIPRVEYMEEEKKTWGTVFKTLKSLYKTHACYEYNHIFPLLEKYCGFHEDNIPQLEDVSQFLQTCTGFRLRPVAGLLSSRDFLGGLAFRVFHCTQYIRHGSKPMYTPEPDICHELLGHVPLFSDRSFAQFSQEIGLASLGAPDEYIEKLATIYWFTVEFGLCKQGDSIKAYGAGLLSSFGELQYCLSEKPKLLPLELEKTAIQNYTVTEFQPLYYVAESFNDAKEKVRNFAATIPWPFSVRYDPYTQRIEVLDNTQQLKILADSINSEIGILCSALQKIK
Procedure: Compounds were resuspended in DMSO, and 2-fold serial dilutions were performed to generate a 10-point dose curve. Compounds were added to plated cells in a total volume of 100 pal, and a final DMSO concentration of 0.5%. Each compound was tested in duplicate. Following compound addition, cells were placed in a 5% CO2, 37° C. tissue culture incubator for 24 hrs. After the incubation period, 20 μM sepiapterin and 800 μM 13C9,15N-Phenylalanine were added. After 4 hours, cell media was removed. An aliquot of 10 μl of cell media was combined with 200 μl of extraction buffer (80% acetonitrile/20% H2O) for each well. Determination of ^13C-Tyrosine concentration was assessed by liquid chromatography mass spectrometry.

SMILES | AC50 [µM]
O=C(C1CN(CC(F)(F)F)C1)N1CCc2[nH]cnc2C1c1ccc2ccccc2n1 (stereo not shown) [listing 1 of 2 here] | 1 to 5
O=C(c1cnn(-c2ccccn2)c1)N1CCc2[nH]cnc2C1c1ccc2ccccc2n1 (stereo not shown) | 1 to 5
O=C(C1CN(c2ccccn2)C1)N1CCc2[nH]cnc2C1c1ccc2ccccc2n1 (stereo not shown) [listing 1 of 2 here] | 1 to 5
Cn1nc(COC(F)(F)F)cc1C(=O)N1CCc2[nH]cnc2C1c1ccc2ccccc2n1 (stereo not shown) | 1 to 5
Cn1cc(-c2ncc(C(=O)N3CCc4[nH]cnc4C3c3ccc4ccccc4n3)o2)cn1 (stereo not shown) | 1 to 5
Cc1nc(CCN2CC(F)C2)oc1C(=O)N1CCc2[nH]cnc2C1c1ccc2ccccc2n1 (stereo not shown) [listing 1 of 2 here] | 1 to 5
COC(C)(C)c1nc(C)c(C(=O)N2CCc3[nH]cnc3C2c2ccc3ccccc3n2)o1 (stereo not shown) | 1 to 5
Cc1nc(N2CCC(F)CC2)oc1C(=O)N1CCc2[nH]cnc2C1c1ccc2ccccc2n1 (stereo not shown) [listing 1 of 2 here] | 1 to 5
O=C(c1oc(C2CC2)nc1C(F)F)N1CCc2[nH]cnc2C1c1ccc2ccccc2n1 (stereo not shown) | 1 to 5
O=C(c1oc(-c2ccccn2)nc1C1CC1)N1CCCc2[nH]cnc2C1c1ccc2ccccc2n1 (stereo not shown) [listing 1 of 2 here] | 1 to 5
Cc1nc(N2CCN(C)CC2)oc1C(=O)N1CCc2[nH]cnc2C1c1ccc2ccccc2n1 (stereo not shown) | 1 to 5
Cc1nc(N2CCOCC2)oc1C(=O)N1CCc2[nH]cnc2C1c1ccc2ccccc2n1 (stereo not shown) [listing 1 of 2 here] | 1 to 5
O=C(c1nnc(-c2ccn(CC(F)F)n2)o1)N1CCc2[nH]cnc2C1c1ccc2ccccc2n1 (stereo not shown) [listing 1 of 2 here] | 1 to 5
O=C(c1nnc(-c2cn[nH]c2)o1)N1CCc2[nH]cnc2C1c1ccc2ccccc2n1 (stereo not shown) [listing 1 of 2 here] | 1 to 5
O=C(c1nnc(CCN2CCOCC2)o1)N1CCc2[nH]cnc2C1c1ccc2ccccc2n1 (stereo not shown) [listing 1 of 2 here] | 1 to 5
O=C(c1nnc(N2CC(F)C2)o1)N1CCc2[nH]cnc2C1c1ccc2ccccc2n1 (stereo not shown) [listing 1 of 2 here] | 1 to 5
O=C(c1nnc(C2CC(F)(F)C2)o1)N1CCc2[nH]cnc2C1c1ccc2ccccc2n1 (stereo not shown) [listing 1 of 2 here] | 1 to 5
O=C(c1nnc(-c2ccc(C(F)(F)F)cc2)o1)N1CCc2[nH]cnc2C1c1ccc2ccccc2n1 (stereo not shown) [listing 1 of 2 here] | 1 to 5
Cc1cc(F)ccc1-c1nnc(C(=O)N2CCc3[nH]cnc3C2c2ccc3ccccc3n2)o1 (stereo not shown) | 1 to 5
O=C(c1nnc(N2CCC(F)CC2)o1)N1CCc2[nH]cnc2C1c1ccc2ccccc2n1 (stereo not shown) [listing 1 of 2 here] | 1 to 5
O=C(c1nnc(-c2ccc(C(F)(F)F)cn2)o1)N1CCc2[nH]cnc2C1c1ccc2ccccc2n1 (stereo not shown) [listing 1 of 2 here] | 1 to 5
O=C(c1nnc(COC(F)(F)F)o1)N1CCc2[nH]cnc2C1c1ccc2ccccc2n1 (stereo not shown) [listing 1 of 2 here] | 1 to 5
COCc1nnc(C(=O)N2CCc3[nH]cnc3C2c2ccc3ccccc3n2)o1 (stereo not shown) | 1 to 5
O=C(c1nnc(-c2ccccn2)o1)N1CCCc2[nH]cnc2C1c1ccc2ccccc2n1 (stereo not shown) | > 5

SMILES | AC50 [µM]
O=C(c1cnn(-c2ccccn2)c1Cl)N1CCc2[nH]cnc2C1c1ccc2ccccc2n1 (stereo not shown) [listing 1 of 2 here] | 1 to 5
COCCc1ccc2c(C(=O)N3CCc4[nH]cnc4C3c3ccc4ccccc4n3)cnn2c1 (stereo not shown) [listing 1 of 2 here] | 1 to 5
COCc1ccc2c(C(=O)N3CCc4[nH]cnc4C3c3ccc4ccccc4n3)cnn2c1 (stereo not shown) | > 5
O=C(C1CC1(F)F)N1CCc2[nH]cnc2C1c1ccc2ccccc2n1 (stereo not shown) | 1 to 5
Cc1nc(N)oc1C(=O)N1CCc2[nH]cnc2C1c1ccc2ccccc2n1 (stereo not shown) [listing 1 of 2 here] | 1 to 5
O=C(c1nnc(CCNC2CC2)o1)N1CCc2[nH]cnc2C1c1ccc2ccccc2n1 (stereo not shown) [listing 1 of 2 here] | 1 to 5
COCCNc1nnc(C(=O)N2CCc3[nH]cnc3C2c2ccc3ccccc3n2)o1 (stereo not shown) [listing 1 of 2 here] | 1 to 5
Cc1nc(NC2CC2)oc1C(=O)N1CCc2[nH]cnc2C1c1ccc2ccccc2n1 (stereo not shown) [listing 1 of 2 here] | 1 to 5
O=C(c1nnc(NC2CC2)o1)N1CCc2[nH]cnc2C1c1ccc2ccccc2n1 (stereo not shown) [listing 1 of 2 here] | 1 to 5
CN(C)c1nnc(C(=O)N2CCc3[nH]cnc3C2c2ccc3ccccc3n2)o1 (stereo not shown) [listing 1 of 2 here] | 1 to 5
Cc1nc(N(C)C)oc1C(=O)N1CCc2[nH]cnc2C1c1ccc2ccccc2n1 (stereo not shown) | 1 to 5
Cc1nc(CCN(C)C)oc1C(=O)N1CCc2[nH]cnc2C1c1ccc2ccccc2n1 (stereo not shown) | 1 to 5
CN(C)Cc1nnc(C(=O)N2CCc3[nH]cnc3C2c2ccc3ccccc3n2)o1 (stereo not shown) [listing 1 of 2 here] | 1 to 5
COC(=O)N1CC(C(=O)N2CCc3[nH]cnc3C2c2ccc3ccccc3n2)C1 (stereo not shown) | > 5
O=C(C1CN(CC(F)(F)F)C1)N1CCc2[nH]cnc2C1c1ccc2ccccc2n1 (stereo not shown) [listing 2 of 2 here] | > 5
O=C(C1CN(c2ccccn2)C1)N1CCc2[nH]cnc2C1c1ccc2ccccc2n1 (stereo not shown) [listing 2 of 2 here] | > 5
Cc1nc(CCN2CC(F)C2)oc1C(=O)N1CCc2[nH]cnc2C1c1ccc2ccccc2n1 (stereo not shown) [listing 2 of 2 here] | > 5
Cc1nc(N2CCC(F)CC2)oc1C(=O)N1CCc2[nH]cnc2C1c1ccc2ccccc2n1 (stereo not shown) [listing 2 of 2 here] | > 5
COCc1ncc(C(=O)N2CCc3[nH]cnc3C2c2ccc3ccccc3n2)s1 (stereo not shown) | > 5
O=C(c1oc(-c2ccccn2)nc1C1CC1)N1CCCc2[nH]cnc2C1c1ccc2ccccc2n1 (stereo not shown) [listing 2 of 2 here] | > 5
Cc1nc(N2CCOCC2)oc1C(=O)N1CCc2[nH]cnc2C1c1ccc2ccccc2n1 (stereo not shown) [listing 2 of 2 here] | > 5
O=C(c1nnc(-c2ccn(CC(F)F)n2)o1)N1CCc2[nH]cnc2C1c1ccc2ccccc2n1 (stereo not shown) [listing 2 of 2 here] | > 5
O=C(c1nnc(-c2cn[nH]c2)o1)N1CCc2[nH]cnc2C1c1ccc2ccccc2n1 (stereo not shown) [listing 2 of 2 here] | > 5
O=C(c1nnc(CCN2CCOCC2)o1)N1CCc2[nH]cnc2C1c1ccc2ccccc2n1 (stereo not shown) [listing 2 of 2 here] | > 5

SMILES | AC50 [µM]
O=C(c1nnc(N2CC(F)C2)o1)N1CCc2[nH]cnc2C1c1ccc2ccccc2n1 (stereo not shown) [listing 2 of 2 here] | > 5
O=C(c1nnc(C2CC(F)(F)C2)o1)N1CCc2[nH]cnc2C1c1ccc2ccccc2n1 (stereo not shown) [listing 2 of 2 here] | > 5
O=C(c1nnc(-c2ccc(C(F)(F)F)cc2)o1)N1CCc2[nH]cnc2C1c1ccc2ccccc2n1 (stereo not shown) [listing 2 of 2 here] | > 5
O=C(c1nnc(N2CCC(F)CC2)o1)N1CCc2[nH]cnc2C1c1ccc2ccccc2n1 (stereo not shown) [listing 2 of 2 here] | > 5
O=C(c1nnc(-c2ccc(C(F)(F)F)cn2)o1)N1CCc2[nH]cnc2C1c1ccc2ccccc2n1 (stereo not shown) [listing 2 of 2 here] | > 5
O=C(c1nnc(COC(F)(F)F)o1)N1CCc2[nH]cnc2C1c1ccc2ccccc2n1 (stereo not shown) [listing 2 of 2 here] | > 5
O=C(c1cnn(-c2ccccn2)c1Cl)N1CCc2[nH]cnc2C1c1ccc2ccccc2n1 (stereo not shown) [listing 2 of 2 here] | > 5
COCCc1ccc2c(C(=O)N3CCc4[nH]cnc4C3c3ccc4ccccc4n3)cnn2c1 (stereo not shown) [listing 2 of 2 here] | > 5
Cc1nc(N)oc1C(=O)N1CCc2[nH]cnc2C1c1ccc2ccccc2n1 (stereo not shown) [listing 2 of 2 here] | > 5
O=C(c1nnc(CCNC2CC2)o1)N1CCc2[nH]cnc2C1c1ccc2ccccc2n1 (stereo not shown) [listing 2 of 2 here] | > 5
COCCNc1nnc(C(=O)N2CCc3[nH]cnc3C2c2ccc3ccccc3n2)o1 (stereo not shown) [listing 2 of 2 here] | > 5
Cc1nc(NC2CC2)oc1C(=O)N1CCc2[nH]cnc2C1c1ccc2ccccc2n1 (stereo not shown) [listing 2 of 2 here] | > 5
O=C(c1nnc(NC2CC2)o1)N1CCc2[nH]cnc2C1c1ccc2ccccc2n1 (stereo not shown) [listing 2 of 2 here] | > 5
CN(C)c1nnc(C(=O)N2CCc3[nH]cnc3C2c2ccc3ccccc3n2)o1 (stereo not shown) [listing 2 of 2 here] | > 5
CN(C)Cc1nnc(C(=O)N2CCc3[nH]cnc3C2c2ccc3ccccc3n2)o1 (stereo not shown) [listing 2 of 2 here] | > 5
Cc1ncoc1C(=O)N1CC2(CC2)c2[nH]cnc2C1c1ccc2ccccc2n1 (stereo not shown) | 1 to 5
CC1CN(C(=O)c2nnc(C(C)(C)O)o2)C(c2cc3ccccc3cn2)c2nc[nH]c21 (stereo not shown) | 1 to 5
CC1CN(C(=O)c2nnc(N3CCOCC3)o2)C(c2cc3ccccc3cn2)c2nc[nH]c21 (stereo not shown) [listing 1 of 2 here] | 1 to 5
CC1CN(C(=O)c2nnc(N(C)C)o2)C(c2cc3ccccc3cn2)c2nc[nH]c21 (stereo not shown) [listing 1 of 3 here] | 1 to 5
CC1CN(C(=O)c2nnc(N(C)C)o2)C(c2cc3ccccc3cn2)c2nc[nH]c21 (stereo not shown) [listing 2 of 3 here] | 1 to 5
CC1CN(C(=O)c2nnc(N3CCOCC3)o2)C(c2cc3ccccc3cn2)c2nc[nH]c21 (stereo not shown) [listing 2 of 2 here] | > 5
CC1CN(C(=O)c2nnc(N(C)C)o2)C(c2cc3ccccc3cn2)c2nc[nH]c21 (stereo not shown) [listing 3 of 3 here] | > 5
